Data published in patent US20070197658A1, “Polyamines and their use as antibacterial and sensitizing agents” (priority 2006, published 2007).
“And” between values parts separate entries of the source, which are not always exact repeats. Equal values may be shown once.

How the values were obtained:
[1] = test system: E. coli ATCC 9637; test: microbe, parasite or virus in culture
Procedure: (§1) An equal volume of a suspension of either E. coli ATCC 9637 (FIG. 6A) or S. aureus ATCC 13709 (FIG. 6B) in 2× Mueller-Hinton broth was added using an automated liquid dispensing system to a 384 well plate, and bacterial growth was measured by absorptimetry as described in Materials and Methods.
(§2) In this example, E. coli strain 9637 and S. aureus strain 13709 were procured from ATCC (Manassas, Va.). For IM permeability assays, E. coli ML-35 (ATCC 43827), a lactose permease-deficient strain with constitutive cytoplasmic β-galactosidase activity was used (26). Calcium chloride transformation of E. coli ML-35 was performed using the plasmid vector pBR322 (6), encoding tetracycline and ampicillin resistance genes (Promega, Madison, Wis.). The transformed strain, E. coli ML-35p, selected by ampicillin resistance, was utilized for the OM permeabilization assay. E. coli ML-35p was maintained on trypticase soy agar plates with 50 μg/ml of ampicillin.
(§3) Minimum inhibitory concentrations of the acylpolyamines were determined by broth microdilution method (1) as per NCCLS guidelines. Mid-log phase Mueller-Hinton broth (MHB; non-cation supplemented) cultures of organisms (40 μl; OD600nm adjusted to 0.5 AU, and diluted ten-fold) were added to equal volumes of two-fold serially diluted acylpolyamines in a 384-well microtiter plate with the help of a Biotek Precision 2000 automated microplate pipetting system. The MICs of rifampicin, polymyxin B (PMB), polymyxin B nonapeptide (PMBN), naphthylacetyl spermine trihydrochloride and methoctramine tetrahydrochloride (Sigma, St. Louis, Mo.) were included as reference compounds for comparison of activity. The microtiter plates were sealed and incubated overnight at 37° C. The plates were read at an absorbance of 600 nm. The lowest concentration of an agent inhibiting growth of the organisms was recorded as the MIC.

[2] = test system: S. aureus ATCC 13709; test: microbe, parasite or virus in culture
Procedure: as §1, §2, §3

[3] = test system: E. coli ATCC 9637; test: Effect of acylpolyamines on MIC of rifampicin (sensitization); format: cell-based, Escherichia coli; design: key to Sensitization to Rifampin: fold sensitization = MIC rifampicin alone / MIC with 10 μM compound; conditions: E. coli strain 9637 preincubated with 10 μM of compound; MIC of rifampicin
Procedure: E. coli ATCC 9637 was seeded in MH broth in chequerboard format in a 384-well plate containing a constant concentration of compound and varying doses of rifampicin. Bacterial growth was monitored by turbidimetry at 600 nm. PMBN and melittin were used as positive controls. Wells containing no test-compound served as negative control. […] Fold sensitization was calculated as MICRifampicin alone/MICRifampicin+10μM Compound.
Perturbation of the outer membrane permeability barrier greatly sensitizes Gram negative organisms to otherwise impermeable hydrophobic solutes, rifampicin being a classic example To determine the effect of acylpolyamines on the MIC of hydrophobic antibiotic, rifampicin, E. coli strain 9637 was used. Overnight cultures of E. coli grown in MHB preincubated with 10 μM of acylpolyamines were added to serially diluted rifampicin in a 384-well microtiter plate. After incubation at 37° C. overnight, the MIC was determined. Controls included PMBN and melittin (positive) and rifampicin alone (negative). All experiments were run in triplicate.

[4] = target: human serum albumin (Homo sapiens, UniProt P02768); test: biochemical; conditions: KD for HSA, isothermal titration calorimetry; single-site model
[5] = test system: LPS-induced nitric oxide production in murine macrophages; test: NO inhibition, compound solubilized in DMSO or in HSA; format: cell-based, mouse; conditions: DMSO vs HSA solubilization (FIG. 7C)
[6] = test system: E. coli ML-35p (OM) / E. coli ML-35 (IM); format: cell-based, Escherichia coli; conditions: nitrocefin and ONPG hydrolysis
Procedure: OM permeabilizing activity was determined using E. coli ML-35p (parent i^− z^+ y^− ATCC 43827 transformed with pBR322 vector encoding periplasmic β-lactamase); the leakage of periplasmic β-lactamase activity was quantified using nitrocefin as a chromogenic substrate. IM permeabilizing activity was determined using E. coli ML-35 using o-nitrophenyl-β-D-galactopyranoside as the substrate to determine the β-galactosidase activity. In all experiments, PMB, PMBN, and melittin were used as reference compounds.
Nitrocefin (Calbiochem, San Diego, Calif.) was used for the determination of periplasmic β-lactamase activity since PADAC has been reported to be frequently insensitive to β-lactamase activity in clinically relevant strains of Staphylococcus. […] Harvested mid-log phase cultures of E. coli ML-35p (OD600nm adjusted to 0.5 AU) grown in trypticase soy broth were washed thrice with normal saline (0.9%). Nitrocefin was added to a final concentration of 50 μg/ml to the washed bacterial suspension, which was then added to the serially diluted compounds in a 384-well microtiter plate as described earlier. […] After various times of incubation at 37° C., β-lactamase activity was measured spectrophotometrically at 486 nm using an automated Spectramax M2 instrument (Molecular Devices, Sunnyvale, Calif.).
The IM permeability was measured using o-nitrophenyl-β-D-galactopyranoside (“ONPG”; Sigma, St. Louis, Mo.) as the substrate to determine the β-galactosidase activity. […] Washed cultures of E coli ML-35 mixed with 1.5 mM of ONPG in normal saline (0.9%) were added to serially diluted compounds in a 384-well microtiter plate. PMBN and melittin were used as the controls. The production of o-nitrophenol was quantified absorptimetrically at 420 nm after an incubation period of 1 hour at 37° C.
OM and IM permeability were determined respectively from dose-response curves of nitrocefin and ONPG hydrolysis rates as described in Lehrer et al., Concurrent assessment of inner and outer membrane permeabilization and bacteriolysis in E. coli by multiple-wavelength spectrophotometry, J. Immunol.

[7] = test system: human whole blood; test: Hemolysis in fresh whole human blood (released hemoglobin, 570 nm); format: cell-based; conditions: fresh undiluted EDTA human blood, 37° C., 30 min
Procedure: Melittin was used as a positive control.
1:233-245 (2004). Erythrocyte damage was measured using two different techniques. […] Biophys. Acta 1123:269-274 (1992).

human serum albumin, sequence (P02768 25-609): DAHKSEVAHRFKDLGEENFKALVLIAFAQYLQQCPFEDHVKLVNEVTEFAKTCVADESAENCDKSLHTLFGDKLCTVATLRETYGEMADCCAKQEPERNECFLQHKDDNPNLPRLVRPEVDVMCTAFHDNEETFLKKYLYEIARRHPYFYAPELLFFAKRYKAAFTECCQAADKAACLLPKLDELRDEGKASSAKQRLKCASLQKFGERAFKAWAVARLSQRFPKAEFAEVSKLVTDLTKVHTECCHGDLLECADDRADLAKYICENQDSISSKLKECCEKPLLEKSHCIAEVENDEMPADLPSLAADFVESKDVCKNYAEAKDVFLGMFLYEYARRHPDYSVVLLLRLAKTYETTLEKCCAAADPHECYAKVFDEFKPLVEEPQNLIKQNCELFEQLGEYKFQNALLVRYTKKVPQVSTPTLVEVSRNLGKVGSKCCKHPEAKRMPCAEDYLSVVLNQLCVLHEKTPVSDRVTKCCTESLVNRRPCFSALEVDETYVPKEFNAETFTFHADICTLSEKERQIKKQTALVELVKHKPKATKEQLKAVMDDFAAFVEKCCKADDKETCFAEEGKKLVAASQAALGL

`CCCCCCCCCCCCCCC(=O)NCCCNCCCNCCCCNCCCN` [Compound 4e] was tested, and the MIC ([1]; Escherichia coli, ATCC9637) was 31.2 µM and 29.3 µg/mL, the MIC ([2]; Staphylococcus aureus, ATCC13709) was 15.6 µM and 14.6 µg/mL and the “Sensitization to Rifampin” value [3] was 7.81. The Kd [4] was 1980 nM and ~2000 nM and the “potency of NO inhibition solubilized in DMSO or in HSA” value [5] was “identical potency”.

For `CC[C@H](C)[C@H](NC(=O)CN)C(=O)NCC(=O)N[C@@H](C)C(=O)N[C@H](C(=O)N[C@@H](CC(C)C)C(=O)N[C@@H](CCCCN)C(=O)N[C@H](C(=O)N[C@@H](CC(C)C)C(=O)N[C@H](C(=O)N[C@H](C(=O)NCC(=O)N[C@@H](CC(C)C)C(=O)N1CCC[C@H]1C(=O)N[C@@H](C)C(=O)N[C@@H](CC(C)C)C(=O)N[C@H](C(=O)N[C@@H](CO)C(=O)N[C@@H](Cc1c[nH]c2ccccc12)C(=O)N[C@H](C(=O)N[C@@H](CCCCN)C(=O)N[C@@H](CCCNC(=N)N)C(=O)N[C@@H](CCCCN)C(=O)N[C@@H](CCCNC(=N)N)C(=O)N[C@@H](CCC(N)=O)C(=O)N[C@@H](CCC(N)=O)C(N)=O)[C@@H](C)CC)[C@@H](C)CC)[C@@H](C)O)[C@@H](C)O)C(C)C)C(C)C` [Melittin, melittin, reference compound], the MIC ([1]; E. coli ATCC 9637, Mueller-Hinton broth, overnight 37° C.) was 175 μM and 498.1 μg/ml, the MIC ([2]; S. aureus ATCC 13709, Mueller-Hinton broth, overnight 37° C.) was 5.5 μM and 15.6 μg/ml and the “membrane-permeabilizing activity (OM and IM)” value [6] was “potently membrane-permeabilizing”. For the same compound, the “hemolysis in human whole blood” value [7] was “caused hemolysis at low micromolar concentrations”.
